The text below walks through data of patent publication US20250074891A1 (Anaxis Pharma Pty Ltd., priority 2021, published 2025).

In one experiment the target is RIP1 (Homo sapiens (Human), UniProt Q13546). Description: KINOMEscan binding assay, RIP1. Particulars: Table 35.
The target of another experiment is RIP3 (Homo sapiens (Human), UniProt Q9Y572). Description: KINOMEscan binding assay, RIP3. Particulars: Table 35. As to the method:
Kinase assays. For most assays, kinase-tagged T7 phage strains were grown in parallel in 24-well blocks in an E. coli host derived from the BL21 strain. E. coli were grown to log-phase and infected with T7 phage from a frozen stock (multiplicity of infection=0.4) and incubated with shaking at 32° C. until lysis (90-150 minutes).
The Hill Slope was set to −1.

RIP3, sequence (Q9Y572 whole entry): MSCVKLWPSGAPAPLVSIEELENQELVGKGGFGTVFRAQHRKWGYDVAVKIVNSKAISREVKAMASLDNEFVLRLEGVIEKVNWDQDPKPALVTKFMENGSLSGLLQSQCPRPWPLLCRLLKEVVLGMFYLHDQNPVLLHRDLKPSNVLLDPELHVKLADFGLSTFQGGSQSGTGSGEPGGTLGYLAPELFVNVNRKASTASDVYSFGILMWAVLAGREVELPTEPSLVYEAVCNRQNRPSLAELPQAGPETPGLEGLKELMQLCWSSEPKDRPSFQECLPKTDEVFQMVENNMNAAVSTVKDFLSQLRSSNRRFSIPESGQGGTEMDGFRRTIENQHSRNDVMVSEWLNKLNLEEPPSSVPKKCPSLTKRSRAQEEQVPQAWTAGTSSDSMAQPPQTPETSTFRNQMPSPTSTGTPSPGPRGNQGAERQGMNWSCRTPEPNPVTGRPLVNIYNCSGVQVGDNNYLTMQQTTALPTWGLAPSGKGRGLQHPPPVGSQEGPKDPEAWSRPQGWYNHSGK
RIP1, sequence (Q13546 whole entry): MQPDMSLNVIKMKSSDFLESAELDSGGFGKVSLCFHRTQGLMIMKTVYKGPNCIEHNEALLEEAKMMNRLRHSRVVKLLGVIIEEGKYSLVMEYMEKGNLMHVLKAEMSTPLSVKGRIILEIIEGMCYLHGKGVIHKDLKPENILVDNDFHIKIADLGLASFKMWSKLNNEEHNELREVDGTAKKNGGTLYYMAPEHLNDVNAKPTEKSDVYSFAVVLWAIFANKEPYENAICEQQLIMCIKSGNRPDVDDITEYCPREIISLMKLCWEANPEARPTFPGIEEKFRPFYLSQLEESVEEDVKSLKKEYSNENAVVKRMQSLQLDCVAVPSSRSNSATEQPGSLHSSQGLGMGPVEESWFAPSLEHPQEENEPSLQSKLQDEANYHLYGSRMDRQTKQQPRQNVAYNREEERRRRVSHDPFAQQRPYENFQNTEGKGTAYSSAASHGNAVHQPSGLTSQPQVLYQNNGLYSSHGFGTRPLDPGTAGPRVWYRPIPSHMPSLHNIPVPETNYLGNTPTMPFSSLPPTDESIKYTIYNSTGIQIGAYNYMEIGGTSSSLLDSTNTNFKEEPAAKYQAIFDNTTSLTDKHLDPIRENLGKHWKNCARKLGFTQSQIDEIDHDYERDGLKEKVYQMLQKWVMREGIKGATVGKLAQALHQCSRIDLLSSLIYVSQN

As to `COCCS(=O)(=O)Nc1ccc(-c2n[nH]c(Nc3cccc(C(F)(F)F)n3)c2C(N)=O)cc1` [Compound 50, 3-(4-((2-methoxyethyl)sulfonamido)phenyl)-5-((6-(trifluoromethyl)pyridin-2-yl)amino)-1H-pyrazole-4-carboxamide], the Kd at RIP1 and at RIP3 was greater than 30 µM each time.

In the case of `CN(C)CCS(=O)(=O)Nc1ccc(-c2n[nH]c(Nc3cccc(C(F)(F)F)n3)c2C(N)=O)cc1` [Compound 51, 3-(4-((2-(dimethylamino)ethyl)sulfonamido)phenyl)-5-((6-(trifluoromethyl)pyridin-2-yl)amino)-1H-pyrazole-4-carboxamide], the Kd on RIP1 and at RIP3 was greater than 30 µM each time.

In the case of `CCS(=O)(=O)Nc1ccc(-c2n[nH]c(Nc3cccnn3)c2C(N)=O)cc1` [Compound 64, 3-(4-ethanesulfonamidophenyl)-5-[(pyridazin-3-yl)amino]-1H-pyrazole-4-carboxamide], the Kd on RIP1 and on RIP3 was greater than 30 µM each time.

`CCS(=O)(=O)Nc1ccc(-c2n[nH]c(Nc3cnc4cc(Cl)ccc4n3)c2C(N)=O)cc1` [Compound 65, 5-((6-chloroquinoxalin-2-yl)amino)-3-(4-(ethylsulfonamido)phenyl)-1H-pyrazole-4-carboxamide]: the Kd at RIP1 and on RIP3 was greater than 30 µM throughout.

As for `CC(C)(C)S(=O)(=O)Nc1ccc(-c2n[nH]c(Nc3cnccn3)c2C(N)=O)cc1` [Compound 69, 3-(4-((1,1-dimethylethyl)sulfonamido)phenyl)-5-(pyrazin-2-ylamino)-1H-pyrazole-4-carboxamide], the Kd at RIP1 and at RIP3 was greater than 30 µM in each case.

As for `NC(=O)c1c(-c2ccc(NS(=O)(=O)CC3CCC3)cc2)n[nH]c1Nc1cnccn1` [Compound 81, 3-(4-((cyclobutylmethyl)sulfonamido)phenyl)-5-(pyrazin-2-ylamino)-1H-pyrazole-4-carboxamide], the Kd on RIP1 and at RIP3 was greater than 30 µM throughout.

For the molecule `COc1ccc(S(=O)(=O)Nc2ccc(-c3n[nH]c(Nc4cnccn4)c3C(N)=O)cc2)cc1` [Compound 82, 3-(4-((4-methoxyphenyl)sulfonamido)phenyl)-5-(pyrazin-2-ylamino)-1H-pyrazole-4-carboxamide], the Kd at RIP1 and on RIP3 was greater than 30 µM each time.

Regarding `NC(=O)c1c(-c2ccc(NS(=O)(=O)Cc3cccc(C(F)(F)F)c3)cc2)n[nH]c1Nc1cnccn1` [Compound 83], the Kd at RIP1 and on RIP3 was greater than 30 µM in each case.

As for `CCCS(=O)(=O)Nc1ccc(-c2n[nH]c(Nc3cnccn3)c2C(N)=O)cc1` [Compound 97, 3-(4-(propylsulfonamido)phenyl)-5-(pyrazin-2-ylamino)-1H-pyrazole-4-carboxamide], the Kd at RIP1 and at RIP3 was greater than 30 µM each time.

As for `CCS(=O)(=O)Nc1ccc(-c2n[nH]c(Nc3cc(C)ncc3F)c2C(N)=O)cc1` [Compound 111, 3-(4-(ethylsulfonamido)phenyl)-5-((5-fluoro-2-methylpyridin-4-yl)amino)-1H-pyrazole-4-carboxamide], the Kd on RIP1 and at RIP3 was greater than 30 µM in each case.

For `COCCOc1cc(Nc2[nH]nc(-c3ccc(NS(=O)(=O)CCN(C)C)cc3)c2C(N)=O)ccn1` [Compound 116, 3-(4-((2-(dimethylamino)ethyl)sulfonamido)phenyl)-5-((2-(2-methoxyethoxy)pyridin-4-yl)amino)-1H-pyrazole-4-carboxamide], the Kd at RIP1 and at RIP3 was greater than 30 µM throughout.

Take `CCS(=O)(=O)Nc1ccc(-c2n[nH]c(Nc3ccnc(C)n3)c2C(N)=O)cc1` [Compound 125, 3-(4-(ethylsulfonamido)phenyl)-5-((2-methylpyrimidin-4-yl)amino)-1H-pyrazole-4-carboxamide]: the Kd on RIP1 and on RIP3 was greater than 30 µM in each case.
